Values of other authors, collected in US12044651B2, “Sensor device and methods” (SCENTIAN BIO LIMITED, priority 2016, dated 2024).

Test system: BdorOBP2
Details: ref 39; cited from earlier work

| Compound | detection limit |
| --- | --- |
| C=CCc1ccc(OC)c(OC)c1 [4-allylveratrole] | ~10^−6 M |
| CCCCOC(=O)c1ccccc1C(=O)OCCCC [dibutyl phthalate] | ~10^−6 M |
| CC(=O)OCCC(C)C [isoamyl acetate] | ~10^−6 M |
| COC(=O)c1ccc(O)cc1 [methy-p-hydroxyl benzoate] | ~10^−6 M |
| O=CCc1ccccc1 [phenylacetaldehyde] | ~10^−6 M |
| CC(=O)/C=C/C1=C(C)CCCC1(C)C [β-ionone] | ~10^−6 M |
